ChEMBL document CHEMBL1250451, “Mechanistic insights into a Ca2+-dependent family of alpha-mannosidases in a human gut symbiont” (Nat Chem Biol, 2010)
Activity calls are given as the source filed them. The calls are words filed in the database; no cut-off is given here.

Legend:
Format in all cases: protein assay
[1] = target: T1, Alpha-1,2-mannosidase (BT_3530) (Bacteroides thetaiotaomicron) (UniProt Q8A1X8); assay: Activity of Bacteroides thetaiotaomicron GH92 alpha-mannosidase GH92 alpha-mannosidase 3530 assessed as mannose release at 1 mM after 16 hrs by HPLC relative to untreated control after 16 hrs by HPLC
T1 sequence (whole entry): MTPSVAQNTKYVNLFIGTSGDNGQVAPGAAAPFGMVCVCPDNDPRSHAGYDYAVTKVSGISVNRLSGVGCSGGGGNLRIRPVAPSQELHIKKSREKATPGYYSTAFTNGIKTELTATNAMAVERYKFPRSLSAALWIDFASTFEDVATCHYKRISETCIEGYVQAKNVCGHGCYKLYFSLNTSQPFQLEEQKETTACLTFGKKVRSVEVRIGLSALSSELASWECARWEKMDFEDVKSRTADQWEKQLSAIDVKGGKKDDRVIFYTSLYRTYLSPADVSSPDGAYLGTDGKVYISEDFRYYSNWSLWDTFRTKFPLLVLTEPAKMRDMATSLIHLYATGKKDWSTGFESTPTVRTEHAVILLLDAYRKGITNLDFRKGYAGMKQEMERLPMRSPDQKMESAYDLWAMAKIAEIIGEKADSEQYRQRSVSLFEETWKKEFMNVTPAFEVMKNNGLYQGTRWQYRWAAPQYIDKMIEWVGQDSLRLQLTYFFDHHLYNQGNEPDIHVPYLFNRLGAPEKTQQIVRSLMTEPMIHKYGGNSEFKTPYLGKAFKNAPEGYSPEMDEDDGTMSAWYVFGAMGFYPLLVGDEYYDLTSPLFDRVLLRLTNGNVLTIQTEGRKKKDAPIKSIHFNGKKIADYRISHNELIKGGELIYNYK

[2] = target: T2, Alpha-1,2-mannosidase (BT_3965) (Bacteroides thetaiotaomicron) (UniProt Q8A0Q6); assay: Activity of Bacteroides thetaiotaomicron GH92 alpha-mannosidase GH92 alpha-mannosidase 3965 assessed as mannose release at 1 mM after 16 hrs by HPLC relative to untreated control after 16 hrs by HPLC
T2 sequence (whole entry): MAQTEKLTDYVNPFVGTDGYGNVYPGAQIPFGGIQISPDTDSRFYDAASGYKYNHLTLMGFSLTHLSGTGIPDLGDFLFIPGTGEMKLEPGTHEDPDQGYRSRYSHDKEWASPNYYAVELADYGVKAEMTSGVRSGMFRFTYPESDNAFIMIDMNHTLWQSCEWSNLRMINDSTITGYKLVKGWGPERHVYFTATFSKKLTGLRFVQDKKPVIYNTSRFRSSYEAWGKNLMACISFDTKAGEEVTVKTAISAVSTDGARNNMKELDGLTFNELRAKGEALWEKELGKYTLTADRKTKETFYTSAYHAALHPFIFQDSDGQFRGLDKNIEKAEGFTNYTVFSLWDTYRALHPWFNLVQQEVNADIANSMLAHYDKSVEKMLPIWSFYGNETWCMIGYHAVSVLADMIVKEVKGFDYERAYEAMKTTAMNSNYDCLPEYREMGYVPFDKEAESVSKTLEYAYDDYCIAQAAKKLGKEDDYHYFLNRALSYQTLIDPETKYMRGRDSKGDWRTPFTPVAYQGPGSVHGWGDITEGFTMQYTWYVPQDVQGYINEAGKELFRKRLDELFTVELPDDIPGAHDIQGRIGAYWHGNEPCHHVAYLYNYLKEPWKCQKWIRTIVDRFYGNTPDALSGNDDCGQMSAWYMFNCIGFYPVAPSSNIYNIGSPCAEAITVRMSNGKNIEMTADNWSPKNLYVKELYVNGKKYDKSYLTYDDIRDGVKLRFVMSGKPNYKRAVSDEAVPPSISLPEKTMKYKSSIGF

[3] = target: T3, Alpha-1,2-mannosidase (BT_3858) (Bacteroides thetaiotaomicron) (UniProt Q8A113); assay: Activity of Bacteroides thetaiotaomicron GH92 alpha-mannosidase GH92 alpha-mannosidase 3858 assessed as mannose release at 1 mM after 16 hrs by HPLC relative to untreated control after 16 hrs by HPLC
T3 sequence (whole entry): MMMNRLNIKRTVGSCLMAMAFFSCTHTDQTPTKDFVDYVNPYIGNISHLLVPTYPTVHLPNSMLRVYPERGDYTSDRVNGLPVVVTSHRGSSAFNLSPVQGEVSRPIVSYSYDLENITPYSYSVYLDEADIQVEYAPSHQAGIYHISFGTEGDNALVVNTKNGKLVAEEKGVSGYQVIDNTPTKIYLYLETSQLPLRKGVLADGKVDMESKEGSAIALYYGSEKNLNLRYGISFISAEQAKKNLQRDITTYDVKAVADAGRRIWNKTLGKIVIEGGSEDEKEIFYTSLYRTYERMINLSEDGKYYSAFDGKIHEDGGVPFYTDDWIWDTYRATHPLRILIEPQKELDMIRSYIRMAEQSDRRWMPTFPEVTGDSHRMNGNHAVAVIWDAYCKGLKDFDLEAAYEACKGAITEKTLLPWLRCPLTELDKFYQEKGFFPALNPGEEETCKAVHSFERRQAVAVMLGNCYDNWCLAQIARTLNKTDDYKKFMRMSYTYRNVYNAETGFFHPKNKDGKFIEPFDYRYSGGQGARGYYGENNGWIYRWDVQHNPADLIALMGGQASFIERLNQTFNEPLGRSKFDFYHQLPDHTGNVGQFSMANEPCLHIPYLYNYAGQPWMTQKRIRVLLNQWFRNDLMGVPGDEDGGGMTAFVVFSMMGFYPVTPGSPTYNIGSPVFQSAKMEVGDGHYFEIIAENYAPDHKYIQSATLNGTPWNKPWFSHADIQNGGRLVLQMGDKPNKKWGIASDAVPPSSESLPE

Row | Activity [1] | Activity [2] [%] | Activity [3] [%] | SMILES
1 | 100% | 100 | 0.1 | OC[C@H]1O[C@H](O[C@H]2[C@H](O)[C@H](O)[C@@H](O)O[C@@H]2CO)[C@@H](O)[C@@H](O)[C@@H]1O
2 | inactive | 0.64 | 0.0025 | OC[C@H]1O[C@H](OC[C@H]2O[C@H](O)[C@@H](O)[C@@H](O)[C@@H]2O)[C@@H](O)[C@@H](O)[C@@H]1O
3 | inactive | 0.27 | 0.045 | OC[C@H]1O[C@H](O[C@H]2[C@@H](O)[C@H](O)[C@@H](CO)O[C@@H]2O)[C@@H](O)[C@@H](O)[C@@H]1O
4 | 58% | 0.09 | – | OC[C@H]1O[C@H](O[C@@H]2[C@H](O)[C@@H](O)O[C@H](CO)[C@H]2O)[C@@H](O)[C@@H](O)[C@@H]1O
